Here are results for 54 compounds from the RepoRT retention time repository (doi:10.1016/j.scitotenv.2015.08.078).

A short description of the data set: RP, Waters ACQUITY UPLC BEH C18, 100 × 2.1 mm, 1.7 µm, 0.3 mL/min, estimated dead time 0.73 min; A: water + 0.1% formic acid, pH 3; B: methanol + 0.1% formic acid, pH 3; gradient (min/%B) 0/10 14/90 16/90 18/10. As to conditions: stereoisomer not certain.
Regarding `CCOP(=O)(Sc1ccccc1)Sc1ccccc1` [Edifenphos], the LC retention time is 11.7 min.
For `CCOC(=O)c1ccccc1C(=O)OCC` [Diethyl phthalate], the LC retention time was 9.3 min.
In the case of `CC(Oc1ccc(Oc2nc3ccc(Cl)cc3o2)cc1)C(=O)O` (centres undefined) [Fenoxaprop] it was 11.6 min; in that of `CCCCC1C(=O)N(c2ccccc2)N(c2ccccc2)C1=O` [Phenylbutazone], 11.6 min; in that of `CCC(C)C1OC2(C=CC1C)CC1CC(CC=C(C)C(OC3CC(OC)C(OC4CC(OC)C(NC(C)=O)C(C)O4)C(C)O3)C(C)C=CC=C3COC4C(O)C(C)=CC(C(=O)O1)C34O)O2` (centres undefined) [Eprinomectin], 15.1 min.
On to `CNC(=O)CSP(=O)(OC)OC` [Omethoate], for which the LC retention time was 2.5 min.
Take `CC(C)NCC(O)COc1ccc(CC(N)=O)cc1` (centres undefined) [Atenolol]: the LC retention time is 8.74 min.
Take `CNc1cnn(-c2cccc(C(F)(F)F)c2)c(=O)c1Cl` [Norflurazon]: the LC retention time is 9.22 min.
Consider `CCCCC(CC)COC(=O)CCCCC(=O)OCC(CC)CCCC` (centres undefined) [Bis-(2-ethylhexyl) adipate], for which the LC retention time was 15.3 min.
The result for `CCNc1nc(NC(C)C(C)C)nc(SC)n1` (centres undefined) [Dimethametryn] reads 11.4 min; that for `CC(C)(C)NCC(O)c1cc(Br)c(N)c(Br)c1` (centres undefined) [Brombuterol], 5.9 min.
For the compound `CCCCc1c(C)nc(NCC)nc1OS(=O)(=O)N(C)C` [Bupirimate], the LC retention time is 11.2 min.
As for `CC12CCC(O)CC1=CCC1C2CCC2(C)C(O)CCC12` (centres undefined) [Androstenediol (AED)], the LC retention time was 12.9 min.
On to `O=C(CCCN1CCN(c2ccccn2)CC1)c1ccc(F)cc1` [Azaperone], for which the LC retention time is 5.63 min.
In the case of `CON=C(C(=O)NC1C(=O)N2C(C(=O)O)=C(COC(C)=O)CSC12)c1csc(N)n1` (centres undefined) [Cefotaxime] it was 4.41 min; in that of `CCn1cc(C(=O)O)c(=O)c2cc3c(cc21)OCO3` [Oxolinic acid], 6.58 min; in that of `O=C(O)Cn1c(=O)sc2cccc(Cl)c21` [Benazolin], 4.59 min.
`Fc1ccc(C2CCNCC2COc2ccc3c(c2)OCO3)cc1` (centres undefined) [Paroxetine]: the LC retention time was 9.22 min.
`COc1ccc2nc(S(=O)Cc3ncc(C)c(OC)c3C)[nH]c2c1` (centres undefined) [Omeprazole]: the LC retention time was 7.14 min.
The result for `CC12C=CC(=O)C=C1CCC1C2CCC2(C)C(=O)CCC12` (centres undefined) [1.4-Androstadiene-3.17-dione (Boldione)] reads 9.82 min.
As to `CCC1OC(=O)CC(O)C(C)C(OC2OC(C)C(O)C(N(C)C)C2O)C(CCN2CC(C)CC(C)C2)CC(C)C(=O)C=CC(C)=CC1COC1OC(C)C(O)C(OC)C1OC` (centres undefined) [Tilmicosin], the LC retention time is 8.78 min.
On to `CC(C)C1(C)N=C(c2nc3ccccc3cc2C(=O)O)NC1=O` (centres undefined) [Imazaquin], for which the LC retention time was 5.22 min.
In the case of `CCOc1cc(OP(=S)(OC)OC)nc(CC)n1` [Etrimfos], the LC retention time was 11.6 min.
With `CCOC(=O)C(CCc1ccccc1)NC(C)C(=O)N1CCCC1C(=O)O` (centres undefined) [Enalapril], the LC retention time was 7.86 min.
As to `CCN(CC)CCOC(=O)c1ccc(N)cc1` [Procaine], the LC retention time was 2.19 min.
In the case of `CC(=O)Nc1c(C)n(C)n(-c2ccccc2)c1=O` [4-Acetylamino-Antipyrine], the LC retention time was 3.87 min.
The result for `CCC(=O)Nc1ccc(Cl)c(Cl)c1` [Propanil] reads 10.3 min; that for `CCOP(=O)(SC(C)CC)SC(C)CC` (centres undefined) [Cadusafos], 12.2 min.
With `CCC(C)(CC)c1cc(NC(=O)c2c(OC)cccc2OC)on1` [Isoxaben], the LC retention time was 10.4 min.
Take `[O-][n+]1nc(-n2ccnc2)nc2ccc(Cl)cc21` [Triazoxide]: the LC retention time is 8.54 min.
For `COc1cnc(NS(=O)(=O)c2ccc(N)cc2)nc1` [Sulfameter], the LC retention time is 3.2 min.
In the case of `CC(Cc1ccc(C(C)(C)C)cc1)CN1CC(C)OC(C)C1` (centres undefined) [Fenpropimorph] it was 14.1 min; in that of `CC#Cc1cc(C)nc(Nc2ccccc2)n1` [Mepanipyrim], 10.7 min.
In the case of `C=CCN(CC=C)C(=O)C(Cl)Cl` [Dichlormid], the LC retention time was 7.52 min.
Consider `CCCCOC(=O)c1ccccc1C(=O)OCc1ccccc1` [Benzyl butyl phthalate], for which the LC retention time is 12.4 min.
For the compound `Cc1ccc(C(=CCN2CCCC2)c2ccccn2)cc1` [Triprolidine], the LC retention time was 7.64 min.
In the case of `Cc1onc(-c2c(Cl)cccc2Cl)c1C(=O)NC1C(=O)N2C1SC(C)(C)C2C(=O)O` (centres undefined) [Dicloxacillin], the LC retention time is 10.4 min.
Turning to `Cc1cccc(C)c1N(Cn1cccn1)C(=O)CCl` [Metazachlor], the LC retention time is 8.95 min.
For the compound `CN(C)C1C(=O)C(C(N)=O)=C(O)C2(O)C(=O)C3=C(O)c4c(O)cccc4C(C)(O)C3C(O)C12` (centres undefined) [Oxytetracycline], the LC retention time was 3.94 min.
Take `CCc1nc(N)nc(N)c1-c1ccc(Cl)cc1` [Pyrimethamine]: the LC retention time was 7.2 min.
As to `CN1CCN(c2c(F)cc3c(=O)c(C(=O)O)cn4c3c2OCN4C)CC1` [Marbofloxacin], the LC retention time is 2.84 min.
With `CCCSP(=S)(OCC)Oc1ccc(SC)cc1` (centres undefined) [Sulprofos], the LC retention time was 14.2 min.
Regarding `CN(C)C1C(=O)C(C(N)=O)=C(O)C2(O)C(=O)C3=C(O)c4c(O)cccc4C(C)(O)C3CC12` (centres undefined) [Tetracycline], the LC retention time was 4.37 min.
Consider `COC(=O)C(C)=COP(=S)(OC)OC` [Methacrifos], for which the LC retention time was 9.37 min.
Turning to `C#CCOC(=O)C(C)Oc1ccc(Oc2ncc(Cl)cc2F)cc1` (centres undefined) [Clodinafop-propargyl], the LC retention time was 11.5 min.
With `CC12CCC(=O)C=C1CCC1C2C(O)CC2(C)C1CCC2(O)C(=O)CO` (centres undefined) [Hydrocortisone], the LC retention time is 8.53 min.
For the compound `CC1CCc2cc(F)cc3c(=O)c(C(=O)O)cn1c23` (centres undefined) [Flumequine], the LC retention time is 7.49 min.
Regarding `CCC(C)C1OC2(C=CC1C)CC1CC(CC=C(C)C(OC3CC(OC)C(OC4CC(OC)C(O)C(C)O4)C(C)O3)C(C)C=CC=C3COC4C(O)C(C)=CC(C(=O)O1)C34O)O2` (centres undefined) [Abamectin B1a], the LC retention time is 13.5 min.
Turning to `CC(=O)Nc1ccc(O)cc1` [Acetaminophen], the LC retention time is 2.4 min.
Consider `CC(C)(C)c1ccc(CSc2cnn(C(C)(C)C)c(=O)c2Cl)cc1` [Pyridaben], for which the LC retention time was 14 min.
As for `O=C(O)c1cn(-c2ccc(F)cc2)c2cc(N3CCNCC3)c(F)cc2c1=O` [Sarafloxacin], the LC retention time is 5.12 min.
The result for `CCN1CCN(c2cc3c(cc2F)c(=O)c(C(=O)O)cn3C2CC2)CC1` [Enrofloxacin] reads 4.58 min; that for `Cc1ccc(N=CN(C)C=Nc2ccc(C)cc2C)c(C)c1` [Amitraz], 13.9 min; that for `CCC1OC(=O)C(C)C(OC2CC(C)(OC)C(O)C(C)O2)C(C)C(OC2OC(C)CC(N(C)C)C2O)C(C)(OC)CC(C)C(=O)C(C)C(O)C1(C)O` (centres undefined) [Clarithromycin], 10.5 min.
